# Test results as given in patent US11450409B2, “Determination of NFkB pathway activity using unique combination of target genes” (InnoSIGN B.V., priority 2015, dated 2022).
# Key:
# [1] = test system: NFkB cellular signaling pathway; experiment: NFkB pathway activity prediction, Bayesian network model (evidence curated list, 19, 13 and 7 target genes shortlists), NHBE samples from E-MTAB-1312 stimulated with TNFα; assay type: cell-based, human; details: NHBE cells
# Excerpt: (§1) Herein, an exemplary Bayesian network model as shown in FIG. 2 was first used to model the transcriptional program of the NFkB cellular signaling pathway in a simple manner. The model consists of three types of nodes: (a) a transcription factor (TF) element (with states “absent” and “present”) in a first layer 1; (b) target genes TG1, TG2, TGn (with states “down” and “up”) in a second layer 2, and; (c) measurement nodes linked to the expression levels of the target genes in a third layer 3. These can be microarray probesets PS1,1, PS1,2, PS1,3, PS2,1, PSn,1, PSn,m (with states “low” and “high”), as preferably used herein, but could also be other gene expression measurements such as RNAseq or RT-qPCR.
# (§2) A suitable implementation of the mathematical model, herein, the exemplary Bayesian network model, is based on microarray data. The model describes (i) how the expression levels of the target genes depend on the activation of the TF element, and (ii) how probeset intensities, in turn, depend on the expression levels of the respective target genes. For the latter, probeset intensities may be taken from fRMA pre-processed Affymetrix HG-U133Plus2.0 microarrays, which are widely available from the Gene Expression Omnibus (GEO, www.ncbi.nlm.nih.gov/geo) and ArrayExpress (www.ebi.ac.uk/arrayexpress).
# Once the exemplary Bayesian network model is built and calibrated (see below), the model can be used on microarray data of a new sample by entering the probeset measurements as observations in the third layer 3, and inferring backwards in the model what the probability must have been for the TF element to be “present”. Here, “present” is considered to be the phenomenon that the TF element is bound to the DNA and is controlling transcription of the cellular signaling pathway's target genes, and “absent” the case that the TF element is not controlling transcription. […]
# [2] = test system: NFkB cellular signaling pathway; experiment: NFkB pathway activity prediction, linear model (evidence curated list), NHBE samples from E-MTAB-1312 stimulated with TNFα; assay type: cell-based, human; details: NHBE cells
# Excerpt: Further to the exemplary Bayesian network model described above, an exemplary linear model was used to model the transcriptional program of the NFkB cellular signaling pathway in a simple manner. The structure of the model corresponded to the one shown in FIG. 3 of the published international patent application WO 2014/102668 A2 (“Assessment of cellular signaling pathway activity using linear combination(s) of target gene expressions”). More specifically, the exemplary linear model consisted of a TF node, a layer of target gene expression and a layer of mRNA expression levels and made use of continuous expression data, all target genes from the evidence curated list of target genes (see Table 3) with all probesets included and without the use of a pseudocount.
# In the diagram, the vertical axis indicates the activity score, wherein positive values correspond to an active NFkB cellular signaling pathway and negative values correspond to a passive NFkB cellular signaling pathway. NHBE cell lines were unstimulated or stimulated with different TNFα concentrations for different timings. All unstimulated healthy cells (groups 1 to 4) are correctly predicted to have a passive NFkB cellular signaling pathway. […]
# [3] = test system: NFkB cellular signaling pathway; experiment: NFkB pathway activity prediction, Bayesian network model (broad literature list), NHBE samples from E-MTAB-1312 stimulated with TNFα; assay type: cell-based, human; details: NHBE cells
# Excerpt: The list of target genes of the NFkB cellular signaling pathway constructed based on literature evidence following the procedure as described herein (“evidence curated list of target genes”, see Table 3) is compared here with a “broad literature list” of putative target genes of the NFkB cellular signaling pathway constructed not following above mentioned procedure. The alternative list is a compilation of genes attributed to responding to activity of the NFkB cellular signaling pathway provided within Thomson-Reuters's Metacore (last accessed Sep. 6, 2013). This database was queried for genes that are transcriptionally regulated directly downstream of the family of NFkB proteins, i.e., NFKB1 or p50/p105, NFKB2 or p52/p100, RELA or p65, REL, and RELB. […] A further selection was made based on the number of publication references supporting the attributed transcriptional regulation of the respective gene by the NFkB family. Genes that had ten or more references were selected for the broad literature list. In other words, no manual curation of the references and no calculation of an evidence score based on the experimental evidence was performed. […] The expression of the genes was measured by 56 probesets on the Affymetrix HG-U133Plus2.0 microarray platform which were selected using the Bioconductor plugin of R and one manually added probeset for DEFB4A, see Table 7. […]
# [4] = test system: NFkB cellular signaling pathway; experiment: NFkB pathway activity prediction, Bayesian network model (evidence curated list), THP-1 monocytic cells; assay type: cell-based, human; details: THP-1 cells treated with CoQ10 and stimulated with LPS (group 3)
# Excerpt: as §1
# as §2, with “(www.ebi.ac.uk/arrayexpress). […]” for “(www.ebi.ac.uk/arrayexpress).”
# [5] = test system: NFkB cellular signaling pathway; details: reported in literature (Schmelzer and Döring 2010), human THP-1 monocytes; cited from earlier work
# [6] = 0.5 h stimulation, all TNFα concentrations (groups 5, 9, 13)
Molecule,"predicted NFkB cellular signaling pathway activity ([1]; 2 and 4 hour stimulation, all concentrations tested)","predicted NFkB cellular signaling pathway activity ([1]; 0.5 h stimulation, low/medium/high TNFα (groups 5, 9, 13))","predicted NFkB cellular signaling pathway activity ([1]; 24 hours stimulation (groups 8, 12, 16))","predicted NFkB cellular signaling pathway activity score [2, 6]",predicted NFkB cellular signaling pathway activity score ([2]; stimulation times of 2 to 24 hours),"predicted NFkB cellular signaling pathway activity [3, 6]",predicted NFkB cellular signaling pathway activity ([3]; stimulation times of 2-24 hours),predicted NFkB cellular signaling pathway activity [4],effect on NFkB cellular signaling pathway activity [5]
TNFα,full-blown NFkB cellular signaling pathway activity,too short for the NFkB cellular signaling pathway to become active,appears to lower the NFkB cellular signaling pathway activity,too short for the NFkB cellular signaling pathway to become active,resulted in an active NFkB cellular signaling pathway,too short for the NFkB cellular signaling pathway to become active,resulted in an active NFkB cellular signaling pathway,–,–
"COC1=C(OC)C(=O)C(C/C=C(\C)CC/C=C(\C)CC/C=C(\C)CC/C=C(\C)CC/C=C(\C)CC/C=C(\C)CC/C=C(\C)CC/C=C(\C)CC/C=C(\C)CCC=C(C)C)=C(C)C1=O [CoQ10, Coenzyme Q10]",–,–,–,–,–,–,–,high predicted NFkB cellular signaling pathway activities,limited
